Experiments:
[1] = target: T1, β1→3N-acetylglucosaminyltransferase (Homo sapiens, UniProt Q9BYG0); test: β1→3N-acetylglucosaminyltransferase assay with Triton X-100 solubilized enzyme from SW403 cells; assay type: biochemical; details: for effect of removal from the reaction mixture on activity (in words): component removed from complete system; for β1-3N-acetylglucosaminyltransferase activity, named component omitted from complete system: component removed; for Effect of detergents on β1-3N-acetylglucosaminyltransferase activity: detergent added at 0.3% final concentration, 0.05% Triton X-100 present from enzyme, acceptor lactosylceramide; for fold less activity on substitution of Mn++: 10 mM final concentration, compared to Mn++; for β1-3N-acetylglucosaminyltransferase activity, Mn++ replaced by the named agent: plus agent at 10 mM final
T1 construct: solubilized from a 27,000 x g membrane pellet of SW403 cells by 0.2% Triton X-100; endogenous in cells; host or cells: SW403 cells (human colonic adenocarcinoma), 0.2% Triton X-100 soluble membrane fraction
T1 sequence (Q9BYG0 1-378): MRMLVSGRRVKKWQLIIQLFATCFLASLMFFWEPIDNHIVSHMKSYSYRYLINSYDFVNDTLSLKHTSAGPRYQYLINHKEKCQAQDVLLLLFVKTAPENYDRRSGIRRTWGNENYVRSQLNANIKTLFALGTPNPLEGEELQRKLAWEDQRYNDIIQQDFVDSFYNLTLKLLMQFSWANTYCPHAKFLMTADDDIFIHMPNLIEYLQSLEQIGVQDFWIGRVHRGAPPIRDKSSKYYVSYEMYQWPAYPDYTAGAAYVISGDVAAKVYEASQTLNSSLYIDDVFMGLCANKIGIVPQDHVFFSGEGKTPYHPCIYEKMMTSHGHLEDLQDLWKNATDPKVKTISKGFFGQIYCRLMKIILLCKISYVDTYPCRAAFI
Protocol: (§1) The labelled product was extracted into the lower phase of a Folch extraction (J. Biol. Chem., 191, 819-831), dried by an N2 stream, and dissolved in 20 μl of CHCl3 :CH3 OH (2:1). An aliquot, 10 μl was spotted on a HPTLC plate (Merck) and developed in a solvent composed of CHCl3 :CH3 OH:H2 O (60:35:8). The labelled glycolipids were located by autoradiography, scraped, and quantitated in a liquid scintillation counter.

[2] = test system: β1→3N-acetylglucosaminyltransferase; test: as above; assay type: biochemical, human; details: for Substrate specificity of β1-3N-acetylglucosaminyltransferase: transfer of GlcNAc to acceptor: 40 ug of each acceptor, ND = none detected
Protocol: as §1

[3] = target: T2, β1-3galactosyltransferase (Homo sapiens, UniProt Q9Y2C3); test: Effect of α-lactalbumin on β1-3galactosyltransferase of a 0.2% Triton X-100 soluble fraction from SW403 cells; assay type: biochemical; details: 30 μg acceptor, 0.2 mg solubilized protein
T2 construct: catalyzed by a 0.2% Triton X-100 soluble fraction from SW403 cells; endogenous in cells; host or cells: SW403 cells (human colonic adenocarcinoma), 0.2% Triton X-100 soluble fraction
T2 sequence (Q9Y2C3 1-310): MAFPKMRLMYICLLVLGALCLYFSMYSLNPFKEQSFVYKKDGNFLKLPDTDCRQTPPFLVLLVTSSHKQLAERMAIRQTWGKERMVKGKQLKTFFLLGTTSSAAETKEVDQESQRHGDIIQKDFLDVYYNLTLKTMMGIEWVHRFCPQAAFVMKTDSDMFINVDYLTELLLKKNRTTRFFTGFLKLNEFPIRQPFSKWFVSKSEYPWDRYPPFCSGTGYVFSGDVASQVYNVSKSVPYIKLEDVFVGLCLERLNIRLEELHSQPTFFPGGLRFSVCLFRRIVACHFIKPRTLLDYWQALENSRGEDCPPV
Protocol: The effect of increasing α-lactalbumin on the transfer of galactose to glucosylceramide, +--+, Lc3 forming nLc4, o--o, and Lc3 forming Lc4, x--x, catalyzed by a 0.2% Triton X-100 soluble fraction from SW403 cells is shown. The assays were conducted in the presence of 30 μg of the indicated acceptor and 0.2 mg of solubilized protein.
Synthesis of type 1 and 2 chain structures Lc4 and nLc4 are catalyzed by β1-3 and β1-4galactosyltransferases, respectively, competing for Lc3. A β1-4-galactosyltransferase responsible for transfer of Gal to Lc3 in human plasma was previously reported to be lactose synthetase A protein which was also involved in the synthesis of lactosylceramide (J. Biochem., 92, 1123-1127 (1982)). The effect of increasing α-lactalbumin on the β1-4galactosyltransferase activity in SW403 cells is seen with glucosylceramide and Lc3 as acceptors.
The reaction mixtures contained 2.5 μmol HEPES buffer, pH 7.0, 20 μg Lc3, 10 μg deoxycholate, 1 μmol MnCI2, 0.5 μmol CDPcholine, 0.5 μmol galactonolactone, 15 nmol UDP[^14 C]galactose (30,000 cpm/nmol), and 0.1 mg protein in a total volume of 0.1 ml. […] The incorporation of [^14 C]galactose into glycolipid was determined as described above.

Molecule: C[N+](C)(C)CCOP(=O)(O)OP(=O)([O-])OC[C@H]1O[C@@H](n2ccc(N)nc2=O)[C@H](O)[C@@H]1O [CDPcholine]
- effect of removal from the reaction mixture on activity (in words) [1]: significant loss of activity
- β1-3N-acetylglucosaminyltransferase activity, named component omitted from complete system ([1]; complete system gives 76.0): 65.3 pmol/hr/mg protein

Molecule: C[C@H](CCC(=O)NCCC[N+](C)(C)CC(O)CS(=O)(=O)[O-])[C@H]1CC[C@H]2[C@@H]3[C@H](O)C[C@@H]4C[C@H](O)CC[C@]4(C)[C@H]3C[C@H](O)[C@]12C (some centres unmarked) [CHAPSO]
- Effect of detergents on β1-3N-acetylglucosaminyltransferase activity [1]: 54.5 pmol/hr/mg protein

Molecule: [Ca+2] [Ca^++]
- fold less activity on substitution of Mn++ [1]: 13 fold
- β1-3N-acetylglucosaminyltransferase activity, Mn++ replaced by the named agent ([1]; complete system gives 76.0): 6.0 pmol/hr/mg protein

Molecule: C[C@H](CCC(=O)O)[C@H]1CC[C@H]2[C@@H]3CC[C@@H]4C[C@H](O)CC[C@]4(C)[C@H]3C[C@H](O)[C@]12C [Deoxycholate]
- Effect of detergents on β1-3N-acetylglucosaminyltransferase activity [1]: 67.5 pmol/hr/mg protein

Molecule: CC(=O)N[C@H]1C(O)O[C@H](CO)[C@@H](O)[C@@H]1O (some centres unmarked) [GlcNAc]
- β1-3N-acetylglucosaminyltransferase activity, GlcNAc added to complete system ([1]; GlcNAc 10 mM final, complete system gives 76.0): 80.3 pmol/hr/mg protein
- effect on transfer of GlcNAc to lactosylceramide (in words) ([1]; agent at 10 mM final concentration (EDTA in place of Mn++; GlcNAc added)): only slight stimulation of the activity

Molecule: [Mg+2] [Mg^++]
- fold less activity on substitution of Mn++ [1]: 21 fold
- β1-3N-acetylglucosaminyltransferase activity, Mn++ replaced by the named agent ([1]; complete system gives 76.0): 3.6 pmol/hr/mg protein

Molecule: Lactotetraosylceramide [Lc4]
- Substrate specificity of β1-3N-acetylglucosaminyltransferase: transfer of GlcNAc to acceptor [2]: 27 pmol/hr/mg protein
- transfer of GlcNAc to acceptor (in words) ([2]; SW403 cell enzyme, lacto-series glycolipid acceptors): detectable but is much lower

Molecule: Triton X-100
- Effect of detergents on β1-3N-acetylglucosaminyltransferase activity [1]: 67.9 pmol/hr/mg protein

Molecule: lactosylceramide
- Substrate specificity of β1-3N-acetylglucosaminyltransferase: transfer of GlcNAc to acceptor [2]: 76 pmol/hr/mg protein
- effect of removal from the reaction mixture on activity (in words) [1]: greatly diminished the activity
- β1-3N-acetylglucosaminyltransferase activity, named component omitted from complete system ([1]; complete system gives 76.0): 8.3 pmol/hr/mg protein

B1: α-lactalbumin: protein modifier of lactose synthetase A protein (β1-4galactosyltransferase) (protein, UniProt P00709 20-142, looked up)
Alpha-lactalbumin: KQFTKCELSQLLKDIDGYGGIALPELICTMFHTSGYDTQAIVENNESTEYGLFQISNKLWCKSSQVPQSRNICDISCDKFLDDDITDDIMCAKKILDIKGIDYWLAHKALCTEKLEQWLCEKL
- effect of α-lactalbumin on β1-3galactosyltransferase with Lc3 as acceptor (forming Lc4) [3]: Slight activation
